Results from publication PMC8712300 (European Journal of Nuclear Medicine and Molecular Imaging, 2021).
“And” between values parts separate entries of the source, which are not always exact repeats. Equal entries are not always repeated. Where two headings read alike, the source gives them in different places.

Experiments:
TSPO [1] = molecular target: T1, TSPO (Rattus norvegicus, UniProt P16257)
[2] = molecular target: central benzodiazepine receptor (CBR); settings: read-out: Ki CBR; displacement of [^3H]flunitrazepam, rat cerebral cortex
Protocol: (§1) The binding assay was performed following a previously published procedure [22], with slight modifications.

[3] = 37 °C, 120 min
Protocol: Aliquots (0.2 mL) were collected at 0, 15, 30, 60, and 120 min and mixed with acetonitrile (0.2 mL), and then centrifuged at 3500 rpm for 5 min. The resulting supernatants were analyzed using a radio-TLC scanner with the developing solvent (50% ethyl acetate-hexane).

in vitro [4] = settings: rat, rat plasma
Protocol: (§2) Plasma protein binding (PPB) was measured using two plasma samples obtained from five rats and a healthy volunteer. […] The mixtures were transferred to the Amicon® Ultra 30 K device (Merck Millipore, USA), and centrifuged at 12,000 rpm for 15 min. […] The plasma-free fraction (fP) was calculated as fp = (APfree /APtotal)/(ASfree/AStotal).

TSPO [5] = molecular target: T1, TSPO; remark: listed apart in the source
Description: Male Sprague–Dawley rats (7–8 weeks old, Orientbio Inc.) were used to create rat models of neuroinflammation and ischemic stroke (n = 4 for each model). […] An ischemic stroke rat model was generated via 60-min occlusion of the right middle cerebral artery (MCAO), as previously described [27]. […] In the case of ischemic stroke model, rats were anesthetized with 5% isoflurane in the presence of 30% nitrous oxide and 70% oxygen, and then were under anesthesia with 2% isoflurane in the presence of 30% nitrous oxide and 70% oxygen during MCAO surgery.
The PET imaging study was performed using a dedicated animal PET/CT scanner (NanoPET/CT; Mediso Inc., Budapest, Hungary) with a 10-cm axial field-of-view (FOV) and a 12-cm transaxial FOV. […]
(§3) The volumes of interest (VOIs) were drawn around the peak PET activity on the ipsilateral region in a coronal PET/CT slice, and symmetrically pasted into the contralateral side on the same slice to yield a contralateral VOI of identical volume and shape. […] Decay-corrected radioactivity in the VOI was expressed as the standardized uptake value (SUV), which was normalized to the injected radioactivity and body weight of the rat using PMOD software version 3.6 (PMOD Technologies Ltd., Zurich, Switzerland). […] The binding potential (BPND) was also calculated as a quantitative value, which represented the receptor binding with the radioligand. […]

[6] = n-octanol/PBS pH 7.4, individual replicates
Protocol: (§4) After vortexing for 1 min, each tube was placed on a table at 25 °C for 3 min. Samples of each phase (100 μL) were counted for radioactivity using a gamma-counter. Log D is expressed as the logarithm of the ratio of the count of n-octanol to that of PBS.

[7] = not given; remark: listed apart in the source
TSPO [8] = molecular target: T1, TSPO; remark: listed apart in the source
Protocol: Male Sprague–Dawley rats (7–8 weeks old, Orientbio Inc.) were used to create rat models of neuroinflammation and ischemic stroke (n = 4 for each model). An acute neuroinflammation rat model was generated by injecting lipopolysaccharides (LPS, 50 μg) into the right striatum of rat brain according to our previous protocol [26]. […] In the case of LPS-induced neuroinflammatory model, rats were anesthetized with ketamine hydrochloride (50 mg/kg) and xylazine hydrochloride (0.2 mg/kg) before LPS injection.
The PET imaging study was performed using a dedicated animal PET/CT scanner (NanoPET/CT; Mediso Inc., Budapest, Hungary) with a 10-cm axial field-of-view (FOV) and a 12-cm transaxial FOV. Before PET imaging, the rats were anesthetized with 2% isoflurane. […]
as §3

physchem = settings: n-octanol/PBS
Protocol: as §4

[9] = normal mice, PET 90 min
Protocol: Normal male C57BL/6 mice (n = 4, 6–7 weeks old, Orientbio Inc.) were used to perform in vivo organ distribution and dosimetry studies (see methodological details in the SI).
All the mice (n = 4) were anesthetized with 2% isoflurane. […] The CT images were used to draw region of interest (ROI) on the following organs: the brain, heart, lung, liver, stomach, urinary bladder, intestine kidneys and adrenals. […] The accumulated activity for each organ were calculated by using the area under curve (AUC) of TACs.

in vitro [10] = settings: human, human plasma
Protocol: as §2

TSPO-WT (HAB) = TSPO-WT (HAB) (Homo sapiens, UniProt P30536, T147A); experiment: biochemical
TSPO-WT (HAB), sequence (P30536 whole entry T147A): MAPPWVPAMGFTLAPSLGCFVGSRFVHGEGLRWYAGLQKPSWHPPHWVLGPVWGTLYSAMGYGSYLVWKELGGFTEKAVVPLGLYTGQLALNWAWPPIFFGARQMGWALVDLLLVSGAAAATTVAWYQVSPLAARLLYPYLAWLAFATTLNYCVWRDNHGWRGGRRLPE

TSPO-mutant A147T (LAB) = TSPO-mutant A147T (LAB) (Homo sapiens, UniProt P30536); experiment: biochemical
TSPO-mutant A147T (LAB), sequence (P30536 whole entry, stated change not applied): as the sequence (P30536 whole entry T147A) above, with A147T counted along it

TSPO [11] = molecular target: T1, TSPO; experiment: biochemical
Protocol: as §1

T1 sequence (P16257 whole entry): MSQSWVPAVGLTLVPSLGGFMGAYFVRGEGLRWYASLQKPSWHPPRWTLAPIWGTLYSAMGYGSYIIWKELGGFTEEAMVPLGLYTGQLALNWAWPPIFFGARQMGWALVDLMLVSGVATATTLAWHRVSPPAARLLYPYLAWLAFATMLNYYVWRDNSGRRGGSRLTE

CCC(C)N(C)C(=O)c1cc2ccccc2c(-c2ccccc2Cl)n1 (stereo not drawn) [PK 11195]
effect on [^18F]BS224 radioactivity in brain slices (blocking) (TSPO [1]): significant reduction of radioactivity | Ki [2]: > 100000 nM

CN1C(=O)CN=C(c2ccccc2F)c2cc([N+](=O)[O-])ccc21 [Flunitrazepam]
Ki [2]: 6.2 ± 0.1 nM

CCCN(CCC)C(=O)Cc1c(-c2ccc([18F])cc2)nc2c(Cl)cc(Cl)cn12 [[^18F]BS224, 2-(-2-(4-[^18F]fluorophenyl)-6,8-dichloro-imidazo[1,2-a]pyridin-3-yl)-N,N-dipropylacetamide]
Effective dose (estimated whole-body human) (extrapolated from normal mouse data): 5.18 μSv/MBq and 05.18 ± 1.03 μSv/MBq | Estimated Human Absorbed Dose, Adrenals (from normal mouse data): 09.66 ± 2.52 µGy/MBq | Estimated Human Absorbed Dose, Brain (from normal mouse data): 04.87 ± 0.90 µGy/MBq | Estimated Human Absorbed Dose, Breast (from normal mouse data): 02.28 ± 0.60 µGy/MBq | Estimated Human Absorbed Dose, Colon wall (from normal mouse data): 02.79 ± 0.55 µGy/MBq | Estimated Human Absorbed Dose, ET region (from normal mouse data): 00.75 ± 0.14 µGy/MBq | Estimated Human Absorbed Dose, Endosteum (bone surface) (from normal mouse data): 00.91 ± 0.19 µGy/MBq | Estimated Human Absorbed Dose, Eye lenses (from normal mouse data): 00.52 ± 0.09 µGy/MBq | Estimated Human Absorbed Dose, Gallbladder wall (from normal mouse data): 14.98 ± 3.89 µGy/MBq | Estimated Human Absorbed Dose, Heart wall (from normal mouse data): 10.54 ± 3.14 µGy/MBq | Estimated Human Absorbed Dose, Kidneys (from normal mouse data): 26.23 ± 8.91 µGy/MBq | Estimated Human Absorbed Dose, Liver (from normal mouse data): 28.88 ± 7.70 µGy/MBq | Estimated Human Absorbed Dose, Lung (from normal mouse data): 07.99 ± 2.42 µGy/MBq | Estimated Human Absorbed Dose, Lymphatic nodes (from normal mouse data): 02.60 ± 0.55 µGy/MBq | Estimated Human Absorbed Dose, Muscle (from normal mouse data): 00.77 ± 0.17 µGy/MBq | Estimated Human Absorbed Dose, Oesophagus (from normal mouse data): 03.90 ± 1.04 µGy/MBq | Estimated Human Absorbed Dose, Oral mucosa (from normal mouse data): 00.50 ± 0.09 µGy/MBq | Estimated Human Absorbed Dose, Pancreas (from normal mouse data): 07.79 ± 1.88 µGy/MBq | Estimated Human Absorbed Dose, Prostate (from normal mouse data): 00.43 ± 0.05 µGy/MBq | Estimated Human Absorbed Dose, Red (active) bone marrow (from normal mouse data): 02.01 ± 0.45 µGy/MBq | Estimated Human Absorbed Dose, Salivary glands (from normal mouse data): 00.49 ± 0.09 µGy/MBq | Estimated Human Absorbed Dose, Skin (from normal mouse data): 00.54 ± 0.12 µGy/MBq | Estimated Human Absorbed Dose, Small intestine wall (from normal mouse data): 07.30 ± 0.29 µGy/MBq | Estimated Human Absorbed Dose, Spleen (from normal mouse data): 02.90 ± 0.71 µGy/MBq | Estimated Human Absorbed Dose, Stomach wall (from normal mouse data): 09.06 ± 3.12 µGy/MBq | Estimated Human Absorbed Dose, Testes (from normal mouse data): 00.06 ± 0.00 µGy/MBq | Estimated Human Absorbed Dose, Thymus (from normal mouse data): 01.88 ± 0.52 µGy/MBq | Estimated Human Absorbed Dose, Thyroid (from normal mouse data): 00.95 ± 0.25 µGy/MBq | Estimated Human Absorbed Dose, Urinary bladder wall (from normal mouse data): 09.46 ± 2.73 µGy/MBq | parent compound remained intact in human serum [3]: over 99% | fraction unbound at 10 min, 1.19 MBq/mL (in vitro [4]): 0.064 ± 0.003 | skull uptake (TSPO [5]; ischemic stroke model PET): not observed | BPND (TSPO [5]; ischemic stroke model, SRTM, contralateral side as reference): 1.57 ± 0.37 | Log D (single measurements 1-5) [6]: 2.754 and 2.735 | % in heart, Parent ([7]; 30 min): Intact | % in kidneys, Parent ([7]; 30 min): Intact | % in liver, Parent ([7]; 30 min): 73.6% and 73.6 ± 5.9% | % in lung, Parent ([7]; 30 min): Intact | % in plasma, Parent ([7]; 30 min): 90.7 ± 0.8% | % in brain, Parent ([7]; 30 min after i.v. injection, rat): Intact | % in heart, Parent ([7]; 90 min): Intact | % in kidneys, Parent ([7]; 90 min): Intact | % in liver, Parent ([7]; 90 min): 53.1% and 53.1 ± 2.7% | % in lung, Parent ([7]; 90 min): Intact | % in plasma, Parent ([7]; 90 min): 69.2 ± 2.9% | % in brain, Parent ([7]; 90 min after i.v. injection, rat): Intact | radioactivity in the femur (in vivo defluorination) ([7]; gamma counting, rat): no radioactivity could be detected | skull uptake (TSPO [8]; LPS model PET): not observed | BPND (TSPO [8]; LPS model, SRTM, contralateral side as reference): 1.43 ± 0.17 | logD (physchem; pH 7.4, Log D (single measurements 1-5), n-octanol/PBS pH 7.4, individual replicates): 2.78 | logD (physchem; pH 7.4, Log D, n-octanol/PBS pH 7.4, 25 °C, average n = 5): 2.78 ± 0.04 | AUC Brain [9]: 201.75±19.25 %ID/g min | AUC Heart [9]: 442.73±84.59 %ID/g min | AUC Intestine [9]: 250.45±7.71 %ID/g min | AUC Kidney [9]: 1345.08±260.65 %ID/g min | AUC Liver [9]: 1102.68±140.38 %ID/g min | AUC Lung [9]: 403.48±82.21 %ID/g min | AUC Stomach [9]: 198.98±53.18 %ID/g min | AUC Urinary Bladder [9]: 91.44±21.23 %ID/g min | Cmax Brain [9]: 5.78±1.51 %ID/g | Cmax Heart [9]: 20.81±8.05 %ID/g | Cmax Intestine [9]: 3.66±0.19 %ID/g | Cmax Kidney [9]: 16.33±3.08 %ID/g | Cmax Liver [9]: 16.21±1.95 %ID/g | Cmax Lung [9]: 14.38±5.88 %ID/g | Cmax Stomach [9]: 3.12±0.81 %ID/g | Cmax Urinary Bladder [9]: 1.35±0.22 %ID/g | Tmax Brain [9]: 1.83 ± 0.68 min | Tmax Heart [9]: 0.83 ± 0.20 min | Tmax Intestine [9]: 38.96 ± 21.39 min | Tmax Kidney [9]: 64.38 ± 16.21 min | Tmax Liver [9]: 38.29 ± 20.60 min | Tmax Lung [9]: 0.71 ± 0.24 min | Tmax Stomach [9]: 41.88 ± 23.30 min | Tmax Urinary Bladder [9]: 45.94 ± 14.36 min | fraction unbound at 10 min, 1.19 MBq/mL (in vitro [10]): 0.049 ± 0.005

CCCN(CCC)C(=O)Cc1c(-c2ccc(F)cc2)nc2c(Cl)cc(Cl)cn12 [BS224]
IC50 (TSPO-WT (HAB)): 590 ± 40 nM | Ki [2]: > 100000 nM | IC50 (TSPO-mutant A147T (LAB)): 450 ± 20 nM | Ki (TSPO [11]): 0.51 ± 0.03 nM

CCCN(CCC)C(=O)Cc1c(-c2ccc(OCCF)cc2)nc2c(Cl)cc(Cl)cn12 [CB251]
Ki [2]: > 100000 nM
